From ChEMBL document CHEMBL1201862, “PubChem BioAssay data set” (2004)
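Briefly, cells in 96-well plates were exposed to five compound concentrations for 48 h, and endpoints were estimated by linear interpolation. Here, GI50 denotes the concentration required for 50% inhibition of growth.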 The source made the active and inactive calls. Cut-off read from the data, not from the text of the source: active = GI50 up to about 1.1 µM and inactive = higher.

Legend:
Assay in all cases: NCI tumour cell line growth inhibition, 48 h
RXF 393 = tested on: RXF 393
LOX IMVI = tested on: LOX IMVI
IGROV-1 = tested on: IGROV-1
SNB-75 = tested on: SNB-75
SR = tested on: SR
SNB-78 = tested on: SNB-78
HOP-18 = tested on: HOP-18
XF498 = tested on: XF498
RPMI-8226 = tested on: RPMI-8226
OVCAR-4 = tested on: OVCAR-4
UO-31 = tested on: UO-31
CAKI-1 = tested on: CAKI-1
MOLT-4 = tested on: MOLT-4
K562 = tested on: K562
NCI-H460 = tested on: NCI-H460
SK-OV-3 = tested on: SK-OV-3
DLD-1 = tested on: DLD-1
OVCAR-3 = tested on: OVCAR-3
Malme-3M = tested on: Malme-3M
HCC 2998 = tested on: HCC 2998
HCT-116 = tested on: HCT-116
HL-60 = tested on: HL-60
SF-268 = tested on: SF-268
DMS-273 = tested on: DMS-273
EKVX = tested on: EKVX
NCI-H522 = tested on: NCI-H522
SN12C = tested on: SN12C
HOP-62 = tested on: HOP-62
SF-295 = tested on: SF-295
CCRF-CEM = tested on: CCRF-CEM
NCI-H23 = tested on: NCI-H23
KM-20L2 = tested on: KM-20L2
NCI-H226 = tested on: NCI-H226
COLO 205 = tested on: COLO 205
OVCAR-5 = tested on: OVCAR-5
A498 = tested on: A498
M19-MEL = tested on: M19-MEL
SF-539 = tested on: SF-539
ACHN = tested on: ACHN
HT-29 = tested on: HT-29
U-251 = tested on: U-251
HOP-92 = tested on: HOP-92
SK-MEL-28 = tested on: SK-MEL-28
UACC-62 = tested on: UACC-62
A549 = tested on: A549
DMS-114 = tested on: DMS-114
OVCAR-8 = tested on: OVCAR-8
SW-620 = tested on: SW-620
TK-10 = tested on: TK-10
SNB-19 = tested on: SNB-19
M14 = tested on: M14
LXFL 529 = tested on: LXFL 529
786-0 = tested on: 786-0
UACC-257 = tested on: UACC-257
KM12 = tested on: KM12
SK-MEL-2 = tested on: SK-MEL-2
HCT-15 = tested on: HCT-15
SK-MEL-5 = tested on: SK-MEL-5

In the case of `CN1C(=O)CC(CC(=O)C2CCCCC2=O)CC1=O` (configuration not stated), the GI50 (RXF 393) is reported as > 100 µM (inactive), the GI50 (LOX IMVI) is reported as > 100 µM (inactive) and the GI50 (IGROV-1) is reported as > 100 µM (inactive). For the same compound, the GI50 (SNB-75) was > 100 µM (inactive), the GI50 (SR) was > 100 µM (inactive) and the GI50 (SNB-78) was > 100 µM (inactive). For the same compound, the GI50 (HOP-18) was > 100 µM (inactive), the GI50 (XF498) was > 100 µM (inactive) and the GI50 (RPMI-8226) was > 100 µM (inactive). The GI50 (OVCAR-4) was > 100 µM (inactive), the GI50 (UO-31) was > 100 µM (inactive) and the GI50 (CAKI-1) was > 100 µM (inactive). For the same compound, the GI50 (MOLT-4) was > 100 µM (inactive), the GI50 (K562) was > 100 µM (inactive) and the GI50 (NCI-H460) was > 100 µM (inactive). For the same compound, the GI50 (SK-OV-3) was > 100 µM (inactive), the GI50 (DLD-1) was > 100 µM (inactive) and the GI50 (OVCAR-3) was > 100 µM (inactive). For the same compound, the GI50 (Malme-3M) was > 100 µM (inactive), the GI50 (HCC 2998) was > 100 µM (inactive) and the GI50 (HCT-116) was > 100 µM (inactive). For the same compound, the GI50 (HL-60) was > 100 µM (inactive), the GI50 (SF-268) was > 100 µM (inactive) and the GI50 (DMS-273) was > 100 µM (inactive). For the same compound, the GI50 (EKVX) was > 100 µM (inactive), the GI50 (NCI-H522) was > 100 µM (inactive) and the GI50 (SN12C) was > 100 µM (inactive). For the same compound, the GI50 (HOP-62) was > 100 µM (inactive), the GI50 (SF-295) was > 100 µM (inactive) and the GI50 (CCRF-CEM) was > 100 µM (inactive). The GI50 (NCI-H23) was > 100 µM (inactive), the GI50 (KM-20L2) was > 100 µM (inactive) and the GI50 (NCI-H226) was > 100 µM (inactive). For the same compound, the GI50 (COLO 205) was > 100 µM (inactive), the GI50 (OVCAR-5) was > 100 µM (inactive) and the GI50 (A498) was > 100 µM (inactive). For the same compound, the GI50 (M19-MEL) was > 100 µM (inactive), the GI50 (SF-539) was > 100 µM (inactive) and the GI50 (ACHN) was > 100 µM (inactive). The GI50 (HT-29) was > 100 µM (inactive), the GI50 (U-251) was > 100 µM (inactive) and the GI50 (HOP-92) was > 100 µM (inactive). For the same compound, the GI50 (SK-MEL-28) was > 100 µM (inactive), the GI50 (UACC-62) was > 100 µM (inactive) and the GI50 (A549) was > 100 µM (inactive). The GI50 (DMS-114) was > 100 µM (inactive), the GI50 (OVCAR-8) was > 100 µM (inactive) and the GI50 (SW-620) was > 100 µM (inactive). For the same compound, the GI50 (TK-10) was > 100 µM (inactive), the GI50 (SNB-19) was > 100 µM (inactive) and the GI50 (M14) was > 100 µM (inactive). For the same compound, the GI50 (LXFL 529) was > 100 µM (inactive), the GI50 (786-0) was > 100 µM (inactive) and the GI50 (UACC-257) was > 100 µM (inactive). For the same compound, the GI50 (KM12) was > 100 µM (inactive).
With `C[N+]1=C(c2cccnc2/C=N/O)OCC1(C)C` the GI50 (RXF 393) was > 100 µM (inactive), the GI50 (LOX IMVI) was > 100 µM (inactive) and the GI50 (IGROV-1) was > 100 µM (inactive). For the same compound, the GI50 (SNB-75) was > 100 µM (inactive), the GI50 (SR) was > 100 µM (inactive) and the GI50 (SNB-78) was > 100 µM (inactive). The GI50 (HOP-18) was > 100 µM (inactive), the GI50 (XF498) was > 100 µM (inactive) and the GI50 (OVCAR-4) was > 100 µM (inactive). The GI50 (UO-31) was > 100 µM (inactive), the GI50 (CAKI-1) was > 100 µM (inactive) and the GI50 (MOLT-4) was > 100 µM (inactive). The GI50 (K562) was > 100 µM (inactive), the GI50 (NCI-H460) was > 100 µM (inactive) and the GI50 (SK-OV-3) was > 100 µM (inactive). For the same compound, the GI50 (DLD-1) was > 100 µM (inactive), the GI50 (OVCAR-3) was > 100 µM (inactive) and the GI50 (Malme-3M) was > 100 µM (inactive). The GI50 (HCC 2998) was > 100 µM (inactive), the GI50 (HCT-116) was > 100 µM (inactive) and the GI50 (HL-60) was > 100 µM (inactive). For the same compound, the GI50 (SF-268) was > 100 µM (inactive), the GI50 (DMS-273) was > 100 µM (inactive) and the GI50 (EKVX) was > 100 µM (inactive). For the same compound, the GI50 (NCI-H522) was > 100 µM (inactive), the GI50 (SN12C) was > 100 µM (inactive) and the GI50 (HOP-62) was > 100 µM (inactive). The GI50 (SF-295) was > 100 µM (inactive), the GI50 (CCRF-CEM) was > 100 µM (inactive) and the GI50 (NCI-H23) was > 100 µM (inactive). The GI50 (KM-20L2) was > 100 µM (inactive), the GI50 (NCI-H226) was < 0.01 µM (active) and the GI50 (COLO 205) was > 100 µM (inactive). For the same compound, the GI50 (OVCAR-5) was > 100 µM (inactive), the GI50 (A498) was > 100 µM (inactive) and the GI50 (M19-MEL) was > 100 µM (inactive). The GI50 (SK-MEL-2) was > 100 µM (inactive), the GI50 (SF-539) was > 100 µM (inactive) and the GI50 (ACHN) was > 100 µM (inactive). For the same compound, the GI50 (HT-29) was > 100 µM (inactive), the GI50 (U-251) was > 100 µM (inactive) and the GI50 (HOP-92) was > 100 µM (inactive). For the same compound, the GI50 (SK-MEL-28) was > 100 µM (inactive), the GI50 (UACC-62) was > 100 µM (inactive) and the GI50 (A549) was > 100 µM (inactive). For the same compound, the GI50 (DMS-114) was > 100 µM (inactive), the GI50 (OVCAR-8) was > 100 µM (inactive) and the GI50 (SW-620) was > 100 µM (inactive). The GI50 (HCT-15) was > 100 µM, the GI50 (TK-10) was > 100 µM (inactive) and the GI50 (SK-MEL-5) was > 100 µM (inactive). For the same compound, the GI50 (SNB-19) was > 100 µM (inactive), the GI50 (M14) was > 100 µM (inactive) and the GI50 (LXFL 529) was > 100 µM (inactive). For the same compound, the GI50 (786-0) was > 100 µM (inactive), the GI50 (UACC-257) was > 100 µM (inactive) and the GI50 (KM12) was > 100 µM (inactive).
For `Nc1nc(=O)[nH]c2c1cnn2COCCO`, the GI50 (RXF 393) was 22.3 µM (inactive), the GI50 (LOX IMVI) was > 100 µM (inactive) and the GI50 (IGROV-1) was > 100 µM (inactive). The GI50 (SNB-75) was > 100 µM (inactive), the GI50 (SR) was > 100 µM (inactive) and the GI50 (SNB-78) was 21.5 µM (inactive). The GI50 (HOP-18) was > 100 µM (inactive), the GI50 (XF498) was > 100 µM (inactive) and the GI50 (RPMI-8226) was > 100 µM (inactive). For the same compound, the GI50 (OVCAR-4) was > 100 µM (inactive), the GI50 (UO-31) was > 100 µM (inactive) and the GI50 (CAKI-1) was > 100 µM (inactive). The GI50 (MOLT-4) was > 100 µM (inactive), the GI50 (K562) was > 100 µM (inactive) and the GI50 (NCI-H460) was > 100 µM (inactive). For the same compound, the GI50 (DLD-1) was > 100 µM (inactive), the GI50 (Malme-3M) was > 100 µM (inactive) and the GI50 (HCT-116) was > 100 µM (inactive). For the same compound, the GI50 (HL-60) was > 100 µM (inactive), the GI50 (SF-268) was > 100 µM (inactive) and the GI50 (DMS-273) was > 100 µM (inactive). For the same compound, the GI50 (EKVX) was > 100 µM (inactive), the GI50 (SN12C) was > 100 µM (inactive) and the GI50 (SF-295) was > 100 µM (inactive). The GI50 (CCRF-CEM) was > 100 µM (inactive), the GI50 (NCI-H23) was 17.3 µM (inactive) and the GI50 (KM-20L2) was 2.33 µM (inactive). For the same compound, the GI50 (NCI-H226) was 0.281 µM (active), the GI50 (COLO 205) was > 100 µM (inactive) and the GI50 (OVCAR-5) was 11.3 µM (inactive). For the same compound, the GI50 (A498) was > 100 µM (inactive), the GI50 (SK-MEL-2) was > 100 µM (inactive) and the GI50 (SF-539) was > 100 µM (inactive). The GI50 (ACHN) was > 100 µM (inactive), the GI50 (HT-29) was > 100 µM (inactive) and the GI50 (U-251) was 22.4 µM (inactive). For the same compound, the GI50 (HOP-92) was > 100 µM (inactive), the GI50 (SK-MEL-28) was 37.1 µM (inactive) and the GI50 (A549) was > 100 µM (inactive). For the same compound, the GI50 (DMS-114) was > 100 µM (inactive), the GI50 (OVCAR-8) was > 100 µM (inactive) and the GI50 (SW-620) was > 100 µM (inactive). For the same compound, the GI50 (HCT-15) was > 100 µM, the GI50 (TK-10) was 20.7 µM (inactive) and the GI50 (SK-MEL-5) was > 100 µM (inactive). The GI50 (SNB-19) was > 100 µM (inactive), the GI50 (M14) was > 100 µM (inactive) and the GI50 (LXFL 529) was > 100 µM (inactive). The GI50 (UACC-257) was > 100 µM (inactive) and the GI50 (KM12) was > 100 µM (inactive).
